Laboratory results from patent US20210315816A1, “ANTIMICROBIAL COMPOSITIONS AND METHODS” (BOARD OF REGENTS OF THE UNIVERSITY OF NEBRASKA, priority 2018, published 2021).

Experiments:
S. aureus [1] = settings: 10 mg/kg, cited from earlier work
[2] = tested on: bone marrow-derived macrophages; assay: IL-4 pre-treated bone marrow-derived macrophages with oligomycin: TNF-α, arginase, protein yield
Method: Bone marrow-derived macrophages were plated overnight and the following day cells were pre-treated with IL-4 (10 ng/mL) for 1 hour followed by various concentrations of oligomycin for 24 hours, whereupon TNF-α (FIG. 2A) and arginase (FIG. 2B) expression was determined by ELISA and enzymatic assay, respectively. Data are presented as the mean±SD combined from two independent experiments (n=6 biological replicates) (*, p<0.05; **, p<0.01; ***, p<0.001; Student's t-test).
Macrophages were expanded from the bone marrow of both male and female C57BL/6NCrl mice as described (Yamada, et al. (2018) Infect. Immun., 86(7) e00206-18). At day in vitro 6, macrophages were harvested and seeded at 5×10^4 cells/well in a 96-well plate. Following an overnight adherence period, macrophages were pre-treated with 10 ng/mL recombinant mouse (rm)IL-4 (Cat #574306 BioLegend, San Diego, Calif.) for 1 hour followed by exposure to various concentrations of oligomycin (Cat #11342 Cayman Chemical) for 24 hours, whereupon medium was collected to quantify TNF-α by cytometric bead array (Cat #552364, BD Biosciences) and arginase activity (Cat #MAK112, Millipore Sigma).

S. aureus USA300 LAC13c = assay: Mouse model of S. aureus orthopedic implant biofilm infection, bacterial burdens; assay type: in vivo
Method: To model infectious complications that can arise in patients following arthroplasty, a mouse model of S. aureus orthopedic implant infection was used (Heim, et al. (2014) Methods Mol. Biol., 1106:183-191; Heim, et al. (2015) J. Leukoc. Biol., 98:1003-1013; Heim, et al. (2014) J. Immunol., 192:3778-3792; Heim, et al. (2015) J. Immunol., 194:3861-3872; Scherr, et al. (2014) Methods Mol. Biol., 1106:173-181). […] Briefly, mice were anesthetized with ketamine/xylazine (100 mg/kg and 5 mg/kg, respectively) and the surgical site was disinfected with povidone-iodine. After a surgical plane of anesthesia was achieved, a medial incision was created through the quadriceps with lateral displacement to access the distal femur. […]
Animals were placed in an induction chamber without restraint and anesthetized with 2.5% isoflurane. […] Nanoparticle injection and length of retention was evaluated in the same cohort of mice using an In Vivo Imaging System (IVIS® Spectrum; PerkinElmer, Waltham, Mass.) under isoflurane anesthesia, with excitation and emission wavelengths of 640 nm and 680 nm, respectively. […]

S. aureus [3] = assay: S. aureus biofilm formation in 96-well plates ± oligomycin; assay type: cell-based; settings: 10 μg/mL
Method: C57BL/6NCrl mice received intra-articular injections of oligomycin at 7 day post-infection (100 ng), or two sequential doses at days 7 and 8 post-infection (50 ng/day), or PBS and were sacrificed at day 14 post-infection. Bacterial burdens were quantified from the surrounding soft tissue, knee, femur, and implant. Results are from one experiment (n=5 mice/group/time point); (*, p<0.05; one-way ANOVA). Additionally, S. aureus biofilm formation was assessed in 96-well plates±oligomycin treatment (bottom graphs). Oligomycin (10 μg/mL) was added to planktonic S. aureus at time 0 (left panel) or mature biofilms for 4 days (right panel) to determine effects on bacterial growth at the indicated time points following oligomycin treatment. Cultures were replenished daily with fresh medium containing oligomycin. Results are presented as Log10 colony forming units (CFU) per well (mean±SD).

[4] = tested on: biofilm-associated monocytes; assay: JC-1 and 2-NBDG staining of biofilm-associated monocytes (OxPhos, glycolysis); assay type: in vivo, mouse; settings: days 3 or 7 after intra-articular injection at day 7 post-infection; oligomycin 100 ng
Method: C57BL/6NCrl mice received a single intra-articular injection of free oligomycin only (Oligo; 100 ng), empty nanoparticles (CT), empty nanoparticles (CT)+free oligomycin (100 ng; not loaded), or oligomycin loaded nanoparticles (CTO) at day 7 post-infection and were analyzed at day 3 (FIG. 12A, 12B; 5 mice/group) or 7 (FIGS. 12C, 12D; 9-10 mice/group) after treatment. FIGS. 12A, 12C: OxPhos was calculated as the ratio of […] monocytes (CD11b^highLy6G^−Ly6C^+F4/80^−) following JC-1 staining and glycolytic activity was calculated as the percentage of 2-NBDG+ monocytes. FIGS. 12B, 12D: Bacterial burdens were assessed in the surrounding soft tissue, knee, femur, and implant, where the dotted lines represent the limit of detection (LOD). All results are reported as the mean±SD (*, p<0.05; **, p<0.01; ***, p<0.001; ****, p<0.0001; One-way ANOVA).
Leukocytes recovered from animals with sterile or S. aureus infected orthopedic implants were stained with the bi-potential dye JC-1 (5,5′,6,6′-Tetrachloro-1,1′,3,3′-tetraethylbenzimidazolocarbocyanine iodide; Cat #T3168 Invitrogen) or the fluorescent glucose analog 2-NBDG (2-(N-(7-Nitrobenz-2-oxa-1,3-diazol-4-yl)Amino)-2-Deoxyglucose; Cat #N13195 ThermoFisher) to evaluate OxPhos and glycolytic activity, respectively. JC-1 emits red fluorescence in mitochondria with large membrane potentials and green fluorescence in depolarized mitochondria. […]

[5] = IL-4 10 ng/mL 1 hour, then oligomycin 24 hours, dose-dependent

SMILES: CCCCCCCCCC(=O)N[C@@H](Cc1c[nH]c2ccccc12)C(=O)N[C@H](CC(N)=O)C(=O)N[C@@H](CC(=O)O)C(=O)N[C@@H]1C(=O)NCC(=O)N[C@@H](CCCN)C(=O)N[C@@H](CC(=O)O)C(=O)N[C@H](C)C(=O)N[C@@H](CC(=O)O)C(=O)NCC(=O)N[C@H](CO)C(=O)N[C@@H]([C@H](C)CC(=O)O)C(=O)N[C@@H](CC(=O)c2ccccc2N)C(=O)O[C@@H]1C [daptomycin]
- S. aureus titers in the joint (S. aureus [1]): less affected
- S. aureus burdens on orthopedic implants (S. aureus [1]; near the limit of detection): < 10^2 CFU

SMILES: CC[C@H]1/C=C/C=C/C[C@@H](C)[C@H](O)[C@@](C)(O)C(=O)[C@@H](C)[C@H](O)[C@@H](C)C(=O)[C@@H](C)[C@H](O)[C@@H](C)/C=C/C(=O)O[C@@H]2[C@H](C)[C@H](CC1)O[C@]1(CC[C@H](C)[C@H](C[C@@H](C)O)O1)[C@H]2C [oligomycin]
- toxicity to macrophages (protein yields) [2]: not toxic to macrophages
- TNF-α expression [2, 5]: increasing TNF-α expression
- arginase activity [2, 5]: decreasing arginase activity
- biofilm burdens (S. aureus USA300 LAC13c; days 3 or 7 after intra-articular injection, oligomycin 100 ng): no changes
- bacterial burdens (S. aureus USA300 LAC13c; direct intra-articular injection, one bolus (100 ng) or two sequential doses (50 ng/day), day 14 post-infection): no effect on bacterial burdens
- bactericidal activity during early biofilm formation or mature biofilms in vitro (S. aureus [3]): no bactericidal activity
- monocyte OxPhos activity (JC-1) [4]: no changes
